Patent US20090247646A1, “USE OF RESVERATROL AND DERIVATIVES THEREOF FOR PROMOTING THE WELLNESS STATE IN MAMMALS” (priority 2006, published 2009)

Tested on: gene expression in heart tissue
Assay: Genome-wide gene expression in heart tissue of old mice fed a resveratrol-supplemented diet (Affymetrix Mouse Genome 430 2.0 array)
Assay type: in vivo
[1] = ADP-ribosyltransferase 1, Genebank ID NM_009710
[2] = Bcl2-associated athanogene 3, Genebank ID NM_013863
[3] = DnaJ (Hsp40) homolog, subfamily A, member 3, Genebank ID AK004575
[4] = DnaJ (Hsp40) homolog, subfamily A, member 4, Genebank ID NM_021422
[5] = DnaJ (Hsp40) homolog, subfamily B, member 5, Genebank ID AI664344
[6] = DnaJ (Hsp40) homolog, subfamily B, member 10, Genebank ID NM_020266
[7] = F-box only protein 25, Genebank ID NM_025785
[8] = F-box only protein 32, Genebank ID AF441120
[9] = F-box protein 30, Genebank ID AK006369
[10] = FK506 binding protein 7, Genebank ID NM_010222
[11] = G protein-coupled receptor kinase 5, Genebank ID BC019379
[12] = Hbs1-like (S. cerevisiae), Genebank ID AK012856
[13] = Mus musculus similar to heart alpha-kinase (LOC381181), mRNA, Genebank ID AY044451
[14] = Mus musculus transcribed sequences, Genebank ID AK004331
[15] = No description found, Genebank ID BG976607
[16] = O-linked N-acetylglucosamine (GlcNAc) transferase (UDP-N-acetylglucosamine:polypeptide-N-acetylglucosaminyl transferase), Genebank ID BG065325
[17] = PTEN induced putative kinase 1, Genebank ID AF316872
[18] = Stam binding protein, Genebank ID AK019907
[19] = acid phosphatase 1, soluble, Genebank ID AW554436

Structure (SMILES): Oc1ccc(/C=C/c2cc(O)cc(O)c2)cc1 [resveratrol, 3,4′,5-Trihydroxy-trans-stilbene]
- Effect of resveratrol on changeing gene expression from old to young profile (1448825_at pyruvate dehydrogenase kinase, isoenzyme 2): >100%
- Effect of resveratrol on changeing gene expression from old to young profile (1448938_at replication protein A3): >100%
- Effect of resveratrol on changeing gene expression from old to young profile (1449116_a_at deoxythymidylate kinase): >100%
- Effect of resveratrol on changeing gene expression from old to young profile (1449334_at tissue inhibitor of metalloproteinase 3): >100%
- Effect of resveratrol on changeing gene expression from old to young profile (1450008_a_at catenin beta): >100%
- Effect of resveratrol on changeing gene expression from old to young profile (1450048_a_at vacuolar protein sorting 33B (yeast) [BLAST]): >100%
- Effect of resveratrol on changeing gene expression from old to young profile (1450634_at ATPase, H+ transporting, V1 subunit A, isoform 1): >100%
- Effect of resveratrol on changeing gene expression from old to young profile (1450720_at acid phosphatase 1, soluble): >100%
- Effect of resveratrol on changeing gene expression from old to young profile (1450899_at neural precursor cell expressed, developmentally down-regulated gene 1): >100%
- Effect of resveratrol on changeing gene expression from old to young profile (1451012_a_at cold shock domain protein A): >100%
- Effect of resveratrol on changeing gene expression from old to young profile (1451148_at PTEN induced putative kinase 1): >100%
- Effect of resveratrol on changeing gene expression from old to young profile (1451249_at DNA segment, Chr 8, ERATO Doi 812, expressed): >100%
- Effect of resveratrol on changeing gene expression from old to young profile (1452066_a_at Nedd4 family interacting protein 2): >100%
- Effect of resveratrol on changeing gene expression from old to young profile (1452767_at ribosome binding protein 1): >100%
- Effect of resveratrol on changeing gene expression from old to young profile (1452843_at interleukin 6 signal transducer): >100%
- Effect of resveratrol on changeing gene expression from old to young profile (1453124_at transportin 3): >100%
- Effect of resveratrol on changeing gene expression from old to young profile (1453129_a_at regulator of G-protein signaling 12): >100%
- Effect of resveratrol on changeing gene expression from old to young profile (1454811_a_at tumor differentially expressed 2): >100%
- Effect of resveratrol on changeing gene expression from old to young profile (1454837_at ceroid-lipofuscinosis, neuronal 6): >100%
- Effect of resveratrol on changeing gene expression from old to young profile (1454848_at protein phosphatase 1, regulatory (inhibitor) subunit 12C [BLAST]): >100%
- Effect of resveratrol on changeing gene expression from old to young profile (1454974_at syntaxin 8): >100%
- Effect of resveratrol on changeing gene expression from old to young profile (1455182_at kinesin family member 1B): >100%
- Effect of resveratrol on changeing gene expression from old to young profile (1455506_at Mus musculus transcribed sequences): >100%
- Effect of resveratrol on changeing gene expression from old to young profile (1455702_at WD repeat domain 22): >100%
- Effect of resveratrol on changeing gene expression from old to young profile (1460028_at Mus musculus transcribed sequences): >100%
- Effect of resveratrol on changeing gene expression from old to young profile (1460174_at dexamethasone-induced transcript): >100%
- Effect of resveratrol on changeing gene expression from old to young profile (1460199_a_at platelet-activating factor acetylhydrolase, isoform 1b, beta1 subunit): >100%
- % of res effect [1]: 108.0103%
- Median RES [1]: 87939
- % of res effect [2]: 131.9726%
- Median RES [2]: 67398
- % of res effect [3]: 67.85%
- Median RES [3]: 30553
- % of res effect [4]: 61.28%
- Median RES [4]: 20850
- % of res effect [5]: 157.0689%
- Median RES [5]: 17969
- % of res effect [6]: 124.1691%
- Median RES [6]: 29661
- number of genes changed by resveratrol (Effect 60-70%): 39
- number of genes changed by resveratrol (Effect 70-80%): 48
- number of genes changed by resveratrol (Effect 80-90%): 52
- number of genes changed by resveratrol (Effect 90-100%): 62
- number of genes changed by resveratrol (Effect <60%): 44
- number of genes changed by resveratrol (Effect >100% (expression in resveratrol-fed old mice as percentage of untreated young mice)): 340
- % of res effect [7]: 80.27%
- Median RES [7]: 11530
- % of res effect [8]: 104.0857%
- Median RES [8]: 35761
- % of res effect [9]: 58.67%
- Median RES [9]: 6641
- % of res effect [10]: 196.8163%
- Median RES [10]: 33928
- % of res effect [11]: 80.42%
- Median RES [11]: 37493
- % of res effect [12]: 74.36%
- Median RES [12]: 9115
- % of res effect [13]: 190.8585%
- Median RES [13]: 21847
- % of res effect [14]: 105.9%
- Median RES [14]: 38260
- % of res effect [15]: 69.74%
- Median RES [15]: 9370
- % of res effect [16]: 125.3946%
- Median RES [16]: 2989
- % of res effect [17]: 147.4853%
- Median RES [17]: 116921
- % of res effect [18]: 230.3846%
- Median RES [18]: 13590
- number of genes changed by resveratrol (Sum): 585
- % of res effect [19]: 349.7466%
- Median RES [19]: 34652
- number of genes that resembled or exceeded the expression level of the young group (among genes changed by resveratrol treatment, heart): 342
